Experiments:
mouse OAZ1 (mOAZ1) = target: T1, mouse OAZ1 (mOAZ1) (Mus musculus, UniProt P54369); experiment: Isothermal titration calorimetry of polyamines binding to mOAZ1; conditions: for ΔH (enthalpy variation) / Ka (affinity constant): pH 7.5; for ΔH (enthalpy variation): SD did not exceed ±20%; for Ka (affinity constant): SD did not exceed ±25%; for Binding to mOAZ1: under the conditions used; for Kd: read-out: Kd (dissociation constant); for TΔS (entropy variation): calculated from TΔS = ΔH + RTlnKa
T1 construct: Full-length mOAZ1 protein was successfully produced in E. coli; made in house; host or cells: Escherichia coli Rosetta (DE3)
T1 sequence (P54369 whole entry): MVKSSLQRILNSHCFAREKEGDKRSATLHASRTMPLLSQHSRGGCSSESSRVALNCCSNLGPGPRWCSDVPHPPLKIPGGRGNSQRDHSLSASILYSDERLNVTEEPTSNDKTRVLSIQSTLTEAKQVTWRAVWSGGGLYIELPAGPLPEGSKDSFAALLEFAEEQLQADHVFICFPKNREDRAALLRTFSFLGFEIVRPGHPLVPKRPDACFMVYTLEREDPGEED
Protocol: For the precise isothermal titration calorimetry (ITC) experiments only freshly purified samples turned out to be suitable. The thermodynamic parameters of polyamines binding to OAZ1 were measured using a MicroCal iTC200 instrument (GE Healthcare, Chicago, IL, USA) as described elsewhere. Experiments were carried out at 31 °C in buffer containing 25 mM potassium phosphate, pH 7.5; 150 mM KCl; 25% (v/v) glycerol; 1 mM 2-mercaptoethanol; and 1 mM PMSF. Aliquots (2.5 μL) of ligands were injected into a 0.2 mL cell containing the protein solution to achieve a complete binding isotherm. Protein and ligand concentrations were 20 μM and 200 μM, respectively. The heat of dilution was measured by injection of the ligand into the buffer solution or by additional injections of ligand after saturation; the values obtained were subtracted from the heat of reaction to obtain the effective heat of binding. The resulting titration curves were fitted using the MicroCal Origin software, assuming one set of binding sites. Affinity constants (Ka) and enthalpy variations (ΔH) were determined, and the entropy variations (ΔS) were calculated from the equation: TΔS = ΔH + RTlnKa.

OAZ1 protein = test system: OAZ1 protein; design: method as in PMID 11972449; conditions: HTC cells; cited from earlier work
[1] = target: T2, recombinant mOAZ1 protein (Mus musculus, UniProt P54369); experiment: Electrophoresis of mOAZ1-Polyamine complex (0.01% SDS in running buffer); format: binding; conditions: 200 μM polyamine, 30 min, 20 °C, pH 7.5
T2 construct: Full-length mOAZ1 protein was successfully produced in E. coli; made in house; host or cells: Escherichia coli Rosetta (DE3)
T2 sequence (P54369 whole entry): as above
Protocol: The recombinant mOAZ1 protein (1 μg/band) was incubated with 200 μM of a polyamine at room temperature for 30 min. Then the sample was quenched with a loading buffer (200 mM Tris-HCl, pH 6.8, 0.01% bromophenol blue, and 40% glycerol) and applied onto 12% polyacrylamide gel lacking SDS. Electrophoresis was carried out in a running buffer with decreased SDS concentration (25 mM Tris base; 250 mM glycine; and 0.01% SDS) at 70 V. The gel was stained with Coomassie R-250.

[2] = calculated as 1/Ka, no binding = not detected, Kd > 50 μM not detectable

Row | ΔH (enthalpy variation) (mouse OAZ1 (mOAZ1); ITC, 31 °C) | Ka (affinity constant) (mouse OAZ1 (mOAZ1); ITC, 31 °C) | Binding to mOAZ1 (mouse OAZ1 (mOAZ1); ITC) | Kd (mouse OAZ1 (mOAZ1); [2]) | TΔS (entropy variation) (mouse OAZ1 (mOAZ1)) | Stoichiometry mOAZ1/Polyamine (mouse OAZ1 (mOAZ1); ITC, 31 °C, pH 7.5, 150 mM KCl, 25% glycerol, protein 20 μM, ligand 200 μM) | Kd (dissociation constant) (mouse OAZ1 (mOAZ1); [2]) | Formation of (mOAZ1)2-Polyamine complex / dimerization [1] | SMILES | Half-life of OAZ1 protein (OAZ1 protein)
1 | -5.1 kcal/mol | 750000 M⁻¹ | bound to mOAZ1 | 1300 nM | 3.0 kcal/mol | – | – | – | CCNCCCNCCCNCCCNCC [DENSpm, N^1,N^11-diethylnorspermine] | –
2 | No binding ^f | No binding ^f | did not | – | No binding ^f | No binding ^f | No binding ^f | – | NCCCCN [Put, putrescine] | –
3 | – | – | – | – | – | – | – | – | CCNCCCCNCCCCNCCCCNCCCCNC/C=C/CNCCCCNCCCCNCCCCNCCCCNCC [SL-11144] | did not increase the half-life of OAZ1 protein
4 | -3.7 kcal/mol | 920000 M⁻¹ | bound to mOAZ1 | 1100 nM | 4.5 kcal/mol | – | – | induce dimerization of OAZ1 | NCCCNCCCCNCCCN [Spm, spermine] | did not increase the half-life of OAZ1 protein

Source: paper PMC9104013, “Role of Polyamine-Induced Dimerization of Antizyme in Its Cellular Functions” (International Journal of Molecular Sciences, 2022)
